Reference: paper PMC10444810, “Induction of open-form bile canaliculus formation by hepatocytes for evaluation of biliary drug excretion” (Communications Biology, 2023)
“And” between values parts separate entries of the source, which are not always exact repeats. Identical values can stand only once.

Test system: icHep (PXB-cells on claudin-1, -2, -3, -9 coated Transwell permeable support)
Test: icHep permeation assay (sinusoidal to bile side) to estimate drug biliary excretion clearance
Settings: for Predicted in vivo CLbile, int / In vitro CLbile, int: single replicate; for In vitro CLbile, app: single replicates; for Predicted in vivo CLbile, int, Mean: mean of 3; for Biliary excretion clearance, in vivo, predicted, CLbile, int: scaled up from in vitro CLbile,int, mean ± S.D., n = 3
[1] = Control, block with icHep (HUM181001B)
[2] = Control, block with icHep (JFC)

| Compound | Predicted in vivo CLbile, int (icHep (HUM181001B)) | Predicted in vivo CLbile, int (icHep (JFC)) | In vitro CLbile, app, Mean [1] [ul/min/106 cells] | In vitro CLbile, app [1] | In vitro CLbile, app, Mean [2] [ul/min/106 cells] | In vitro CLbile, app [2] | Predicted in vivo CLbile, int, Mean (icHep (HUM181001B)) [mL/min] | In vitro CLbile, int (icHep (HUM181001B)) | In vitro CLbile, app, Mean (icHep (HUM181001B)) [ul/min/106 cells] | Biliary excretion clearance, in vivo, predicted, CLbile, int (icHep (HUM181001B)) [mL/min] | In vitro CLbile, app (icHep (HUM181001B)) | Predicted in vivo CLbile, int, Mean (icHep (JFC)) [mL/min] | In vitro CLbile, int (icHep (JFC)) | In vitro CLbile, app, Mean (icHep (JFC)) [ul/min/106 cells] | Biliary excretion clearance, in vivo, predicted, CLbile, int (icHep (JFC)) [mL/min] | In vitro CLbile, app (icHep (JFC)) |
| --- | --- | --- | --- | --- | --- | --- | --- | --- | --- | --- | --- | --- | --- | --- | --- | --- |
| C[C@H]1O[C@@H](O[C@H]2[C@@H](O)C[C@H](O[C@H]3[C@@H](O)C[C@H](O[C@H]4CC[C@@]5(C)[C@H](CC[C@@H]6[C@@H]5C[C@@H](O)[C@]5(C)[C@@H](C7=CC(=O)OC7)CC[C@]65O)C4)O[C@@H]3C)O[C@@H]2C)C[C@H](O)[C@@H]1O [Digoxin, digoxin] | 242 mL/min and 175 mL/min | 71.3 mL/min and 159 mL/min and 72.7 mL/min | – | – | – | – | – | – | – | – | – | – | – | – | – | – |
| CN(Cc1cnc2nc(N)nc(N)c2n1)c1ccc(C(=O)N[C@@H](CCC(=O)O)C(=O)O)cc1 [Methotrexate, methotrexate] | 91.9 mL/min and 203 mL/min and 175 mL/min | 261 mL/min and 274 mL/min and 187 mL/min | 1.51 | 1.65 ul/min/106 cells and 1.43 ul/min/106 cells and 1.44 ul/min/106 cells | 1.37 | 1.41 ul/min/106 cells and 1.36 ul/min/106 cells and 1.35 ul/min/106 cells | 157 | 0.425 ul/min/106 cells and 0.942 ul/min/106 cells and 0.808 ul/min/106 cells | 2.23 | 157 ± 57.9 | 2.08 ul/min/106 cells and 2.37 ul/min/106 cells and 2.25 ul/min/106 cells | 241 | 1.21 ul/min/106 cells and 1.27 ul/min/106 cells and 0.865 ul/min/106 cells | 2.11 | 241 ± 46.9 | 2.06 ul/min/106 cells and 2.12 ul/min/106 cells and 2.13 ul/min/106 cells |
| CC[C@]1(O)C[C@H]2CN(CCc3c([nH]c4ccccc34)[C@@](C(=O)OC)(c3cc4c(cc3OC)N(C=O)[C@H]3[C@@](O)(C(=O)OC)[C@H](OC(C)=O)[C@]5(CC)C=CCN6CC[C@]43[C@@H]65)C2)C1 [Vincristine, vincristine] | 38.0 mL/min and 25.6 mL/min and 19.4 mL/min | 34.3 mL/min and 49.7 mL/min and 27.8 mL/min | 0.159 | 0.124 ul/min/106 cells and 0.154 ul/min/106 cells and 0.199 ul/min/106 cells | 0.205 | 0.186 ul/min/106 cells and 0.220 ul/min/106 cells and 0.208 ul/min/106 cells | 27.6 | 0.176 ul/min/106 cells and 0.118 ul/min/106 cells and 0.0898 ul/min/106 cells | 0.287 | 27.6 ± 9.46 | 0.300 ul/min/106 cells and 0.273 ul/min/106 cells and 0.289 ul/min/106 cells | 37.3 | 0.159 ul/min/106 cells and 0.230 ul/min/106 cells and 0.129 ul/min/106 cells | 0.377 | 37.3 ± 11.2 | 0.345 ul/min/106 cells and 0.450 ul/min/106 cells and 0.337 ul/min/106 cells |
| CC[C@H]1OC(=O)[C@H](C)[C@@H](O[C@H]2C[C@@](C)(OC)[C@@H](O)[C@H](C)O2)[C@H](C)[C@@H](O[C@@H]2O[C@H](C)C[C@H](N(C)C)[C@H]2O)[C@](C)(O)C[C@@H](C)C(=O)[C@H](C)[C@@H](O)[C@]1(C)O [Erythromycin, erythromycin] | 187 mL/min and 172 mL/min and 155 mL/min | 140 mL/min and 165 mL/min and 169 mL/min | 0.624 | 0.611 ul/min/106 cells and 0.632 ul/min/106 cells and 0.630 ul/min/106 cells | – | 1.41 ul/min/106 cells and 1.36 ul/min/106 cells and 1.35 ul/min/106 cells | 171 | 0.865 ul/min/106 cells and 0.795 ul/min/106 cells and 0.720 ul/min/106 cells | – | 171 ± 15.6 | 1.48 ul/min/106 cells and 1.43 ul/min/106 cells and 1.35 ul/min/106 cells | 158 | 0.650 ul/min/106 cells and 0.762 ul/min/106 cells and 0.784 ul/min/106 cells | – | 158 ± 15.6 | 2.06 ul/min/106 cells and 2.13 ul/min/106 cells |
| CN/C(=N/CCSCc1nc[nH]c1C)NC#N [Cimetidine, cimetidine] | 68.3 mL/min and 88.4 mL/min and 137 mL/min | 175 mL/min and 225 mL/min and 163 mL/min | 0.585 | 0.596 ul/min/106 cells and 0.590 ul/min/106 cells and 0.570 ul/min/106 cells | 1.14 | 1.06 ul/min/106 cells and 1.22 ul/min/106 cells and 1.15 ul/min/106 cells | 97.8 | 0.316 ul/min/106 cells and 0.409 ul/min/106 cells and 0.633 ul/min/106 cells | 1.04 | 97.8 ± 35.1 | 0.913 ul/min/106 cells and 1.00 ul/min/106 cells and 1.20 ul/min/106 cells | 188 | 0.810 ul/min/106 cells and 1.04 ul/min/106 cells and 0.756 ul/min/106 cells | 2.01 | 188 ± 32.8 | 1.87 ul/min/106 cells and 2.26 ul/min/106 cells and 1.90 ul/min/106 cells |
| CCOc1ccc2ccccc2c1C(=O)N[C@@H]1C(=O)N2[C@@H]1SC(C)(C)[C@@H]2C(=O)O [Nafcillin, nafcillin] | 208 mL/min and 222 mL/min and 266 mL/min | 727 mL/min and 394 mL/min and 316 mL/min | 0.838 | 0.848 ul/min/106 cells and 0.836 ul/min/106 cells and 0.830 ul/min/106 cells | 1.10 | 0.724 ul/min/106 cells and 1.28 ul/min/106 cells and 1.30 ul/min/106 cells | 232 | 0.964 ul/min/106 cells and 1.03 ul/min/106 cells and 1.23 ul/min/106 cells | 1.91 | 232 ± 30.1 | 1.81 ul/min/106 cells and 1.86 ul/min/106 cells and 2.06 ul/min/106 cells | 479 | 3.37 ul/min/106 cells and 1.82 ul/min/106 cells and 1.47 ul/min/106 cells | 3.32 | 479 ± 218 | 4.09 ul/min/106 cells and 3.10 ul/min/106 cells and 2.77 ul/min/106 cells |
